Assay results published in ChEMBL document CHEMBL4334471, “Discovery of 1,8-disubstituted-[1,2,3]triazolo[4,5-c]quinoline derivatives as a new class of Hippo signaling pathway inhibitors” (Bioorg Med Chem Lett, 2019).

What was measured:
[1] = target: CDK7/Cyclin H/MNAT1 (Homo sapiens) (UniProt P51946+P50613+P51948); test: Inhibition of recombinant full length human CDK7/cyclinH/MAT1 assessed as residual activity at 10 uM using peptide as substrate incubated for 40 mins in presence of [gamma-33ATP] by scintillation counting based radiometry assay relative to control; assay type: protein-complex assay
[2] = target: Cyclin-dependent kinase-like 3 (Homo sapiens) (UniProt Q8IVW4); test: Inhibition of recombinant full length human CDKL3 assessed as residual activity at 10 uM using RRRFRPASPLRGPPK as substrate incubated for 120 mins in presence of [gamma-33ATP] by scintillation counting based radiometry assay relative to control
[3] = target: Serine/threonine-protein kinase 17B (Homo sapiens) (UniProt O94768); test: Inhibition of recombinant human DRAK2 assessed as residual activity at 10 uM using KKRPQRRYSNVF as substrate at 120 mins in presence of [gamma-33ATP] by scintillation counting based radiometry assay relative to control
[4] = target: Ephrin type-B receptor 1 (Homo sapiens) (UniProt P54762); test: Inhibition of recombinant human EphB1 (564 to end residues) assessed as residual activity at 10 uM using KVEKIGEGTYGVVYK as substrate at 40 mins in presence of [gamma-33ATP] by scintillation counting based radiometry assay relative to control
[5] = target: Ephrin type-B receptor 4 (Homo sapiens) (UniProt P54760); test: Inhibition of recombinant human EphB4 (561 to end residues) assessed as residual activity at 10 uM using poly(Glu, Tyr) 4:1 as substrate at 40 mins in presence of [gamma-33ATP] by scintillation counting based radiometry assay relative to control
[6] = target: Tyrosine-protein kinase Fyn (Homo sapiens) (UniProt P06241); test: Inhibition of recombinant full length human Fyn assessed as residual activity at 10 uM using KVEKIGEGTYGVV as substrate at 40 mins in presence of [gamma-33ATP] by scintillation counting based radiometry assay relative to control
[7] = target: Tyrosine-protein kinase Lck (Homo sapiens) (UniProt P06239); test: Inhibition of recombinant full length human LCK activated assessed as residual activity at 10 uM using KVEKIGEGTYGVVYK as substrate after 40 mins in presence of [gamma-33ATP] by scintillation counting based radiometry assay relative to control
[8] = target: Serine/threonine-protein kinase 10 (Homo sapiens) (UniProt O94804); test: Inhibition of recombinant human LOK (1 to 348 residues) assessed as residual activity at 10 uM using RLGRDKYKTLRQI as substrate after 40 mins in presence of [gamma-33ATP] by scintillation counting based radiometry assay relative to control
[9] = target: Mitogen-activated protein kinase kinase kinase kinase 3 (Homo sapiens) (UniProt Q8IVH8); test: Inhibition of recombinant human MAP4K3 (1 to 291 residues) assessed as residual activity at 10 uM using RLGRDKYKTLRQI as substrate incubated for 40 mins in presence of [gamma-33ATP by scintillation counting based radiometry assay relative to control
[10] = target: MAP kinase-activated protein kinase 3 (Homo sapiens) (UniProt Q16644); test: Inhibition of recombinant human MAPKAPK3 (2 to end residues) assessed as residual activity at 10 uM using KKLNRTLSVA as substrate incubated for 40 mins in presence of [gamma-33ATP by scintillation counting based radiometry assay relative to control
[11] = target: Misshapen-like kinase 1 (Homo sapiens) (UniProt Q8N4C8); test: Inhibition of recombinant human MINK (1 to 320 residues) assessed as residual activity at 10 uM using myelin basic protein as substrate incubated for 40 mins in presence of [gamma-33ATP by scintillation counting based radiometry assay relative to control
[12] = target: Serine/threonine-protein kinase NLK (Homo sapiens) (UniProt Q9UBE8); test: Inhibition of recombinant human NLK (121 to end residues) assessed as residual activity at 10 uM using protein as substrate measured after 40 mins in presence of [gamma33P]ATP by scintillation counting based radiometry assay relative to control
[13] = target: Serine/threonine-protein kinase PAK 1 (Homo sapiens) (UniProt Q13153); test: Inhibition of recombinant human PAK1 (150 to end residues) assessed as residual activity at 10 uM using RRRLSFAEPG as substrate measured after 40 mins in presence of [gamma33P]ATP by scintillation counting based radiometry assay relative to control
[14] = target: Proto-oncogene tyrosine-protein kinase receptor Ret (Homo sapiens) (UniProt P07949); test: Inhibition of recombinant human Ret (658 to end residues) assessed as residual activity at 10 uM using KKKSPGEYVNIEFG as substrate incubated for 40 mins in presence of [gamma33P]ATP by scintillation counting based radiometry assay relative to control
[15] = target: Ribosomal protein S6 kinase alpha-1 (Homo sapiens) (UniProt Q15418); test: Inhibition of recombinant full length human Rsk1 assessed as residual activity at 10 uM using KKKNRTLSVA as substrate incubated for 40 mins in presence of [gamma33P]ATP by scintillation counting based radiometry assay relative to control
[16] = target: Mitogen-activated protein kinase 14 (Homo sapiens) (UniProt Q16539); test: Inhibition of recombinant human full length SAPK2a assessed as residual activity at 10 uM using myelin basic protein as substrate incubated for 40 mins in presence of [gamma33P]ATP by scintillation counting based radiometry assay relative to control
[17] = target: Serine/threonine-protein kinase SIK1 (Homo sapiens) (UniProt P57059); test: Inhibition of recombinant human SIK (1 to 281 residues) assessed as residual activity at 10 uM using AMARAASAAALARRR as substrate incubated for 40 mins in presence of [gamma33P]ATP by scintillation counting based radiometry assay relative to control
[18] = target: Serine/threonine-protein kinase SIK3 (Homo sapiens) (UniProt Q9Y2K2); test: Inhibition of recombinant human SIK3 (1 to 307 residues) assessed as residual activity at 10 uM using KKKVSRSGLYRSPSMPENLNRPR as substrate incubated for 40 mins in presence of [gamma33P]ATP by scintillation counting based radiometry assay relative to control
[19] = test system: SNF-related serine/threonine-protein kinase (Homo sapiens), Q9NRH2 [UNDEFINED MUTATION]; test: Inhibition of human SNRK E97G/P116A mutant (65 to 409 residues) assessed as residual activity at 10 uM using KKLRRTLSFAEPG as substrate incubated for 40 mins in presence of [gamma33P]ATP by scintillation counting based radiometry assay relative to control
[20] = target: Serine/threonine-protein kinase 32A (Homo sapiens) (UniProt Q8WU08); test: Inhibition of recombinant human full length STK32A assessed as residual activity at 10 uM using casein as substrate incubated for 40 mins in presence of [gamma33P]ATP by scintillation counting based radiometry assay relative to control
[21] = target: Serine/threonine-protein kinase 33 (Homo sapiens) (UniProt Q9BYT3); test: Inhibition of recombinant full-length human STK33 assessed as residual activity at 10 uM using myelin basic protein as substrate incubated for 40 mins in presence of [gamma33P]ATP by scintillation counting based radiometry assay relative to control

Sequence of SNF-related serine/threonine-protein kinase (Homo sapiens), Q9NRH2 [UNDEFINED MUTATION] (Q9NRH2 whole entry, looked up, stated change not applied, the tested form may be a part): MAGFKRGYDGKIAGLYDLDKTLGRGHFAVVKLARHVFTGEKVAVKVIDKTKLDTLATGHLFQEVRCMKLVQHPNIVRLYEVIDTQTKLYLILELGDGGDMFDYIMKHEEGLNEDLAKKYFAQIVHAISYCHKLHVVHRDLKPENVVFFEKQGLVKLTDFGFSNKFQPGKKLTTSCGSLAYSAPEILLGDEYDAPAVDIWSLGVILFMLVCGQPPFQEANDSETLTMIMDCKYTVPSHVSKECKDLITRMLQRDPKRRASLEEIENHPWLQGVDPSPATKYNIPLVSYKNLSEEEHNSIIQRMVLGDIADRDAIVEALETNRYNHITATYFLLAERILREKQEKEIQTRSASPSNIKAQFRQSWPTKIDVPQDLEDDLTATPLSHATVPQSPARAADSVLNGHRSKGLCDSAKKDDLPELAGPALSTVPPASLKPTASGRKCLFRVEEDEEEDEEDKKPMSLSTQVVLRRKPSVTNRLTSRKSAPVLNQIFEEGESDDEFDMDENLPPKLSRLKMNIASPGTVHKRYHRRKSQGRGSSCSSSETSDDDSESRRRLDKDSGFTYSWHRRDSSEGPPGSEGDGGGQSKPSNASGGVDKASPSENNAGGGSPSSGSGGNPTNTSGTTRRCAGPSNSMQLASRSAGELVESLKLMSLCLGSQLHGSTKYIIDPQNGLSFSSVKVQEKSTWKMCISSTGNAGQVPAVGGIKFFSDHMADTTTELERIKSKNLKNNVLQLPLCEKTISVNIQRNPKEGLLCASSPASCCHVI
Sequence of Mitogen-activated protein kinase kinase kinase kinase 3 (Homo sapiens) (Q8IVH8 whole entry, the tested form may be a part): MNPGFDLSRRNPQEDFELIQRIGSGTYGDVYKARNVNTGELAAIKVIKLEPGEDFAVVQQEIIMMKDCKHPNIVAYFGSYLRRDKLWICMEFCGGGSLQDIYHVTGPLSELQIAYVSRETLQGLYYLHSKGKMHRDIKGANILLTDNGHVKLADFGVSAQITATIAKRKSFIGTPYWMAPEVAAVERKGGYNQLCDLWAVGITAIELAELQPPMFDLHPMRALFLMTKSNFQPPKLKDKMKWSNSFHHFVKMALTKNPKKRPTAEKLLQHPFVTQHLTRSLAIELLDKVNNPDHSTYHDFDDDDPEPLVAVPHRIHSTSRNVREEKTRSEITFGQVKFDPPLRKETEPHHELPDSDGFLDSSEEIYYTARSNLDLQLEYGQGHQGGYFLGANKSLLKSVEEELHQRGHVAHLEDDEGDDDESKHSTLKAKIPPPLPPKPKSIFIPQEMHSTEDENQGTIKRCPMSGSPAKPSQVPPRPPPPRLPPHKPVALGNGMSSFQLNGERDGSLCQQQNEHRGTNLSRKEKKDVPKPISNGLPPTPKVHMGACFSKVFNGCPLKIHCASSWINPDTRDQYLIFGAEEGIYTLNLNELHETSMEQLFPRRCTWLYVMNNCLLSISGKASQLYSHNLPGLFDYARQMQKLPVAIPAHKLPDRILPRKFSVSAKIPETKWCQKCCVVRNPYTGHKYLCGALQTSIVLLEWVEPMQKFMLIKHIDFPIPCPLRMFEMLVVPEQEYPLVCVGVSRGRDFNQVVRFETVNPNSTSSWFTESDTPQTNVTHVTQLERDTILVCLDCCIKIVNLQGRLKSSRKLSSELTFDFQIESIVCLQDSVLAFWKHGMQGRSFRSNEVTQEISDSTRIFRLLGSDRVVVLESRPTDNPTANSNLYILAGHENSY
Sequence of Misshapen-like kinase 1 (Homo sapiens) (Q8N4C8 whole entry, looked up, the tested form may be a part): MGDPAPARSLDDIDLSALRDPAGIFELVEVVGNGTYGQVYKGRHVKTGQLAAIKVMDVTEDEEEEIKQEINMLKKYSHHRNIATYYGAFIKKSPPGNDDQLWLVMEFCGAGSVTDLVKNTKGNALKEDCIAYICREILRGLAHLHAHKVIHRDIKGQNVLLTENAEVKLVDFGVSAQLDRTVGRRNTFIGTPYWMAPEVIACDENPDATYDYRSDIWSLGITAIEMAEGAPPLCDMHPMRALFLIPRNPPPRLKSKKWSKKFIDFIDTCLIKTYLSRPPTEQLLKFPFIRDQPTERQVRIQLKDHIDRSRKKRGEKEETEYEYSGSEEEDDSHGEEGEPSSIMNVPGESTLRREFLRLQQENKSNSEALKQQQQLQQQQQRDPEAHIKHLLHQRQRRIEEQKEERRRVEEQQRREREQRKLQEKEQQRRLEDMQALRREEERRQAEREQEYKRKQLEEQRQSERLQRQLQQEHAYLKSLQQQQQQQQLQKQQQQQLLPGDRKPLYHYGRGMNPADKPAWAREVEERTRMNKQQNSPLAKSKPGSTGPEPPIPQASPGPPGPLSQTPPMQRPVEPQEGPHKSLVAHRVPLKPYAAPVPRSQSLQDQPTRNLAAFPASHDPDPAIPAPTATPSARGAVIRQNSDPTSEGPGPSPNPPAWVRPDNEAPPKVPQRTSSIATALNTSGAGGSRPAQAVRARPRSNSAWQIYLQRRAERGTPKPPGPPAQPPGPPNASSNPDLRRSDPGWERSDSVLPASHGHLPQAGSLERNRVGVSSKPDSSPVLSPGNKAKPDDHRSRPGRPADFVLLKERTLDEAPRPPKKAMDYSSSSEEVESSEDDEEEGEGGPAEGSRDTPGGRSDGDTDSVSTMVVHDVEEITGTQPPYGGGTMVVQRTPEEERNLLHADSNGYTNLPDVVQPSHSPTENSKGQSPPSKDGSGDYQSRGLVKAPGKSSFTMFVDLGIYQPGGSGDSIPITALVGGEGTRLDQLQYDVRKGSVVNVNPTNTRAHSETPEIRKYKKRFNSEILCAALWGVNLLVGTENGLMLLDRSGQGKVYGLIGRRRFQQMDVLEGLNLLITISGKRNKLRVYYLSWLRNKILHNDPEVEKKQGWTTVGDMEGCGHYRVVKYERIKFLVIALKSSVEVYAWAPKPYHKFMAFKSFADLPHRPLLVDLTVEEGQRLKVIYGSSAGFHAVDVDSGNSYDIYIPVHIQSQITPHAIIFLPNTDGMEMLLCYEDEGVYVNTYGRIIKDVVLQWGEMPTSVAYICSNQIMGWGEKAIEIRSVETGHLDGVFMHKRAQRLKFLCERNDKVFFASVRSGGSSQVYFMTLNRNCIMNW
Sequence of Serine/threonine-protein kinase 17B (Homo sapiens) (O94768 whole entry): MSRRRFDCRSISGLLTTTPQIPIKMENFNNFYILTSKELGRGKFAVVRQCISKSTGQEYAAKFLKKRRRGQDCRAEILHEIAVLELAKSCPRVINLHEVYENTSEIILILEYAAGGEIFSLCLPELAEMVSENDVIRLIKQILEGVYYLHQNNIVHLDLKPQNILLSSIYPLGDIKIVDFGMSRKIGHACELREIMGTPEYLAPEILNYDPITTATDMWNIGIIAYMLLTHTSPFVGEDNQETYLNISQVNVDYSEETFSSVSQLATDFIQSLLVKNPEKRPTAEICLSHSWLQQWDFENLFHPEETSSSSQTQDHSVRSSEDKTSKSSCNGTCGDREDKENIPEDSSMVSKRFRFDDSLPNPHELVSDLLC
Sequence of Tyrosine-protein kinase Lck (Homo sapiens) (P06239 2-509 limits assumed): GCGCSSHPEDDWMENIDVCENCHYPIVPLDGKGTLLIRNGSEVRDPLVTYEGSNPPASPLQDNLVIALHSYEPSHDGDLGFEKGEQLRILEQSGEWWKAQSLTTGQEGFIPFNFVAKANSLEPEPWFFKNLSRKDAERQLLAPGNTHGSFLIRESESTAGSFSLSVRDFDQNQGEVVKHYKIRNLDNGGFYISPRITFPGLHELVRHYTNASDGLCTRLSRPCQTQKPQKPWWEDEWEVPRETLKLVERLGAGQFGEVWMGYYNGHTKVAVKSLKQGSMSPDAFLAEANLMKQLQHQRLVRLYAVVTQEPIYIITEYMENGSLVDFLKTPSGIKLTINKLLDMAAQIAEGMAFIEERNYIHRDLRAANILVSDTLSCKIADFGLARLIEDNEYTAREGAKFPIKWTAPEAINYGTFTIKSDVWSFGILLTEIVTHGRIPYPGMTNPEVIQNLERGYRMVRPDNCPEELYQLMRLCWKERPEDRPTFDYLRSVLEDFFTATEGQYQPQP
Sequence of Serine/threonine-protein kinase 32A (Homo sapiens) (Q8WU08 whole entry): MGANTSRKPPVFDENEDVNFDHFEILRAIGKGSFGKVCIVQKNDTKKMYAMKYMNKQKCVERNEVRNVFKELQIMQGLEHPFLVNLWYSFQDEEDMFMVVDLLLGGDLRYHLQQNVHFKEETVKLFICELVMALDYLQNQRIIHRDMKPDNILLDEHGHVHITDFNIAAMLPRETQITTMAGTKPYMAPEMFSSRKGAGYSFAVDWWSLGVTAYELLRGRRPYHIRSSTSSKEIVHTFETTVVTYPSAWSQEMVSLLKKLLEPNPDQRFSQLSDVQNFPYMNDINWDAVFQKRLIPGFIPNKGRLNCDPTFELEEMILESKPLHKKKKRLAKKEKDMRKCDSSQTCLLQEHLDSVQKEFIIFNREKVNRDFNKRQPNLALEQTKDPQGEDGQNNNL
Sequence of Tyrosine-protein kinase Fyn (Homo sapiens) (P06241 2-537 limits assumed): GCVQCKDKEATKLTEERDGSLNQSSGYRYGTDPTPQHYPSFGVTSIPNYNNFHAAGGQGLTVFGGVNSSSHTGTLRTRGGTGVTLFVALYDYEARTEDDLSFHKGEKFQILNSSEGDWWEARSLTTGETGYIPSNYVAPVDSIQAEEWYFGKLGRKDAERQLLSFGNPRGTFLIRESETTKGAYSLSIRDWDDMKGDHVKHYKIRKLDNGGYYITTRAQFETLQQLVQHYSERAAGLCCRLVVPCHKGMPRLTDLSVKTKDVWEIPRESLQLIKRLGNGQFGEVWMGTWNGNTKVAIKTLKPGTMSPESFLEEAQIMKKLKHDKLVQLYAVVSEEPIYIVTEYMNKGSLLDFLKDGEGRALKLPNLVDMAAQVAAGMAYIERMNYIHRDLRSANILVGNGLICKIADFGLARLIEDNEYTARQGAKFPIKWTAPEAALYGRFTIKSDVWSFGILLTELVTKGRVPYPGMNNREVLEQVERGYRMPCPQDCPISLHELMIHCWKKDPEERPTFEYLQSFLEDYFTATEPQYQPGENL

Molecule `C[C@@H](c1ccccc1)n1nnc2cnc3ccc(-c4cnc5[nH]ccc5c4)cc3c21` has an Activity [1] of 80%, an Activity [2] of 104% and an Activity [3] of 64%. For the same molecule, the Activity [4] was 152%, the Activity [5] was 71% and the Activity [6] was 8%. The Activity [7] was 4%, the Activity [8] was 54% and the Activity [9] was 73%. For the same molecule, the Activity [10] was 76%, the Activity [11] was 81% and the Activity [12] was 43%. The Activity [13] was 92%, the Activity [14] was 57% and the Activity [15] was 46%. The Activity [16] was 105%, the Activity [17] was 8% and the Activity [18] was 20%. It also gave an Activity [19] of 76%, an Activity [20] of 95% and an Activity [21] of 91%.
